Assay results published in patent US9526782B2, “Pharmaceutical compositions comprising inhibitors of zinc-ZIP8-MTF1 as active ingredients for preventing or treating a joint disease” (GWANGJU INSTITUTE OF SCIENCE AND TECHNOLOGY, priority 2014, dated 2016).
Where two headings read alike, the source gives them in different places.

Experiments:
[1] = system: matrix-degrading enzymes (MMP3, MMP9, MMP12, MMP13, and ADAMTS5); test: mRNA (qRT-PCR) and protein (Western blotting) levels of matrix-degrading enzymes in chondrocytes; type: cell-based, mouse; settings: for inhibitory effects of TPEN on the ZIP8-mediated expression of matrix-degrading enzymes, effect of pre-incubation of TPEN with the metal salt: Ad-Zip8 chondrocytes, TPEN 1 μM pre-incubated with 1 μM metal ion; for expression of matrix-degrading enzymes caused by the substance itself: chondrocytes, metal salts 100 μM (CdCl2 1 μM)
Method: (§1) Adenoviruses expressing mouse Zip8 (Ad-Zip8) and Mtf1 (Ad-Mtf1) were purchased from Vector Biolabs. Mouse articular chondrocytes were cultured for 2 days, infected with empty virus (Ad-C), Ad-Zip8, or Ad-Mtf1 for 2 hours at the indicated multiplicity of infection (MOI), and cultured for 24 hours, followed by further analyses.
Total RNA was extracted from primary cultured chondrocytes using the TRI reagent (Molecular Research Center Inc.). For the isolation of RNA from knee joints, cartilage tissues were scraped with a blade to remove cartilage, and RNA was isolated using the TRI reagent and Purelink RNA mini kit (Ambion). The RNA was reverse transcribed, and the resulting cDNA was amplified by PCR.
(§2) Transcript levels were quantified by qRT-PCR. siRNAs targeting Zip8 and Mtf1 were obtained from Dharmacon and transfected using Lipofectamine 2000. Non-targeting (scrambled) siRNA was used as a negative control. Chondrocytes were transfected by incubating for 6 hours with siRNA and Lipofectamine 2000 (Invitrogen), and infected with adenoviruses as described above. Therapeutic antibodies for obstruction of ZIP8 function were purchased from Santa Cruz Biotechnology and MyBioSource Company, and treated in chondrocytes for 24 hours.
Total cell lysates were prepared in lysis buffer (150 mM NaCl, 1% NP-40, 50 mM Tris, 5 mM NaF) and used to detect cellular proteins (ZIP8, MTF1, and ERK). Secreted proteins (MMP3, MMP13, and ADAMTS5) were detected after trichloroacetic acid (TCA) precipitation from 900 μl of serum-free conditioned medium. All lysis buffers contained a cocktail of protease inhibitors and phosphatase inhibitors (Roche).

MTF1 = target: T1, MTF1 (Mus musculus, UniProt Q07243); test: MTF1 activity reporter gene assay and immunostaining in chondrocytes; type: cell-based; settings: for inhibitory effects of TPEN on MTF1 transcriptional activity, effect of pre-incubation of TPEN with the metal salt: Ad-Zip8 chondrocytes, TPEN 1 μM pre-incubated with 1 μM metal ion; for MTF1 transcriptional activity, effect of the substance itself: chondrocytes, reporter gene assay
T1 construct: endogenous in cells; host or cells: primary mouse articular chondrocytes
T1 sequence (Q07243 whole entry): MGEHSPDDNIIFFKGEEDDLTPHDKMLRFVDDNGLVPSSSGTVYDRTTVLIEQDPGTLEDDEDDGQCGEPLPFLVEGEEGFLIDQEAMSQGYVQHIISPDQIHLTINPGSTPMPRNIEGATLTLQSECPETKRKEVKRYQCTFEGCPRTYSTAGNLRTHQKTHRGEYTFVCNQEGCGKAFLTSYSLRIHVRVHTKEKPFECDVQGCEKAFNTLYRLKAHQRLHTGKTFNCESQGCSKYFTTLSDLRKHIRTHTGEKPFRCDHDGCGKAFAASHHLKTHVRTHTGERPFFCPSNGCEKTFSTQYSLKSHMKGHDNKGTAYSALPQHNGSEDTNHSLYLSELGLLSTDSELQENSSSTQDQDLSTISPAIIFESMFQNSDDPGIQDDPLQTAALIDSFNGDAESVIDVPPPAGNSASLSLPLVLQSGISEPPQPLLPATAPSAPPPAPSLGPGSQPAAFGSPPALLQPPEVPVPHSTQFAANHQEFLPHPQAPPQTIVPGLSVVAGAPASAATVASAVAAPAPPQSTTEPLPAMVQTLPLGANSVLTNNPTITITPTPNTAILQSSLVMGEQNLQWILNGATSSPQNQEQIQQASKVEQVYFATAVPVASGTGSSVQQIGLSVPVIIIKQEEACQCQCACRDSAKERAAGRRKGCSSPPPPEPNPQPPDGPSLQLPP
Method: The MTF1 reporter gene assay kit was obtained from SABiosciences. Chondrocytes were transfected for 6 hours with a metal response element (MRE) reporter construct and a constitutive Renilla luciferase construct using Lipofectamine 2000 (Invitrogen). Transfected cells were infected with Ad-Mtf1 or Ad-Zip8 for 2 hours or treated with metal ions. Cells were harvested 24 hours after treatment, and firefly luciferase and Renilla luciferase activities were measured using a Dual Luciferase Assay System (Promega). […] MTF1 was detected by immunofluorescence microscopy. Images were acquired using a fluorescence microscope, and at least 200 cells were examined in multiple fields per condition to quantify the percentage of nuclear MTF1-positive cells.

ZIP8 = target: T2, ZIP8 (Mus musculus, UniProt Q91W10); test: Zn^2+ imaging and quantitation with FluoZin-3 AM in primary cultured articular chondrocytes; type: cell-based
T2 construct: host or cells: primary mouse articular chondrocytes infected with Ad-Zip8
T2 sequence (Q91W10 20-462): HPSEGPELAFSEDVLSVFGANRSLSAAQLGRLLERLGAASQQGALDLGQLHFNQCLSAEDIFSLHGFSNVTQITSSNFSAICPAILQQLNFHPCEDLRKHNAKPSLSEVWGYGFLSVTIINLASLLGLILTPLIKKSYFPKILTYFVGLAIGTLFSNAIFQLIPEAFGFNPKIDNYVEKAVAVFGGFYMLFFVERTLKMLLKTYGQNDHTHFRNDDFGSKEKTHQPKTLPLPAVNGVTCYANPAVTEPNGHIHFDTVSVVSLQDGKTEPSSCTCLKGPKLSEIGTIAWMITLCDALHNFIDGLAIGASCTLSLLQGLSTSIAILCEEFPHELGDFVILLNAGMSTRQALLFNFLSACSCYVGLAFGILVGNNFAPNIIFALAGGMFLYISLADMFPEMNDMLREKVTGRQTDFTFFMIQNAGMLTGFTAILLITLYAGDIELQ
Method: Chondrocytes were maintained as a monolayer in Dulbecco's Modified Eagle's Medium (DMEM) supplemented with 10% fetal bovine serum (FBS) and antibiotics, and cells at culture day 2 were treated as indicated in each experiment.
as §1
Intracellular Zn^2+ was detected using the Zn^2+-selective fluorophore, FluoZin-3 AM (Invitrogen). […] Cells were then washed with Ca^2+- and Mg^2+-free phosphate-buffered saline (PBS) and incubated for an additional 30 minutes at 37° C. Intracellular Zn^2+ images were acquired with a fluorescence microscope, and population-wide fluorescence intensity was measured using a Spectramax Gemini microplate fluorescence reader (Molecular Devices) with excitation at 488 nm, cut-off at 515 nm, and emission at 530 nm.
as §2

[2] = chondrocytes infected with Ad-Zip8

Compound	inhibitory effects of TPEN on the ZIP8-mediated expression of matrix-degrading enzymes, effect of pre-incubation of TPEN with the metal salt [1]	expression of matrix-degrading enzymes caused by the substance itself [1]	inhibitory effects of TPEN on MTF1 transcriptional activity, effect of pre-incubation of TPEN with the metal salt (MTF1)	MTF1 transcriptional activity, effect of the substance itself (MTF1)	Ad-Zip8 (ZIP8)-induced upregulation of matrix-degrading enzymes, effect of the test agent [1, 2]	further results
mithramycin-A	–	–	–	–	–	Ad-Zip8 (ZIP8)-induced upregulation of matrix-degrading enzymes, effect of the test agent [1]: significantly attenuated
[Cl][Fe][Cl] [FeCl2]	no significant effects	moderate expression	not	no effect	–	–
[Cl][Cd][Cl] [CdCl2]	no significant effects	did not cause a marked expression	not	moderate activation	–	MMP12 expression ([1]; chondrocytes treated with metal ion): modest induction; expression of matrix-degrading enzymes caused by the substance itself ([1]; listed as Cd^2+): no significant effect
c1ccc(-c2ccccn2)nc1 [2,2-bipyridyl]	–	–	–	–	did not affect	–
[Cl][Mn][Cl] [MnCl2]	no significant effects	did not cause a marked expression	not	no effect	–	–
O=C(O)CN(CCN(CC(=O)O)CC(=O)O)CC(=O)O.[Ca] [CaEDTA, calcium-saturated EDTA]	–	–	–	–	blocked	ZIP8-mediated increase in Zn^2+ influx (ZIP8; chondrocytes infected with Ad-Zip8, with the test agent): abolished; IL1β-caused influx of Zn^2+ in chondrocytes, effect of the test agent (ZIP8; chondrocytes treated with IL1β): blocked; Ad-Mtf1-induced upregulation of matrix-degrading enzymes, effect of the test agent ([1]; chondrocytes infected with Ad-Mtf1): abolished; upregulation of MMP3, MMP13, and ADAMTS5 by IL1β, effect of the test agent ([1]; chondrocytes treated with IL1β): abolished
